Results reported in patent publication US20230392179A1 (SOOCHOW UNIVERSITY, priority 2021, published 2023).

Tested on: Mycobacterium smegmatis containing plasmid PMV261-Kana^R-65S-RecA intein
Test: Intein splicing inhibitor screening system: growth (OD600) of Mycobacterium smegmatis carrying Kana^R-65S-RecA intein in kanamycin medium
Conditions: 20 μM cisplatin, kanamycin 50 μg/mL plus hygromycin, 37° C., 100 h

N.N.[Cl][Pt][Cl] [cisplatin]
inhibition rate of growth of Mycobacterium smegmatis containing plasmid PMV261-Kana^R-65S-RecA intein: 62%
